Laboratory results from PubChem BioAssay AID330 (DTP/NCI, 2004).
Where “and” joins values, the source holds several entries; their conditions need not be identical. Equal values may be shown once. Toxic doses and inconclusive results are not listed. Rule for the calls: active = survival T/C of 150% or more; inactive = T/C below 125% in these data.

System: P388 leukemia ip, CD2F1 mice, survival T/C
Experiment: NCI In Vivo Anticancer Drug Screen. Data for tumor model P388 Leukemia (intraperitoneal) in CD2F1 (CDF1) mice
Conditions: endpoint: median survival time, higher = longer survival
Method in brief: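 Mice carrying the transplanted tumor received test compound or vehicle. Survival was recorded in each group, and the value is the treated-group measurement divided by that of the vehicle-treated control group.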

[1] = dose: 50.0 mg/kg/injection, schedule: Q01DX005 (ip), vehicle: saline with Tween-80
[2] = dose: 100.0 mg/kg/injection, schedule: Q01DX005 (ip), vehicle: saline with Tween-80
[3] = dose: 3.0 mg/kg/injection, schedule: Q01DX005 (ip), vehicle: saline with Tween-80
[4] = dose: 6.0 mg/kg/injection, schedule: Q01DX005 (ip), vehicle: saline with Tween-80
[5] = dose: 12.5 mg/kg/injection, schedule: Q01DX009 (ip), vehicle: saline
[6] = dose: 25.0 mg/kg/injection, schedule: Q01DX009 (ip), vehicle: saline
[7] = dose: 50.0 mg/kg/injection, schedule: Q01DX009 (ip), vehicle: saline
[8] = dose: 50.0 mg/kg/injection, schedule: Q01DX009 (ip), vehicle: saline with Tween-80
[9] = dose: 60.0 mg/kg/injection, schedule: Q01DX005 (ip), vehicle: saline with Tween-80
[10] = dose: 120.0 mg/kg/injection, schedule: Q01DX005 (ip), vehicle: saline with Tween-80
[11] = dose: 12.5 mg/kg/injection, schedule: Q01DX009 (ip), vehicle: saline with Tween-80
[12] = dose: 25.0 mg/kg/injection, schedule: Q01DX009 (ip), vehicle: saline with Tween-80
[13] = dose: 100.0 mg/kg/injection, schedule: Q01DX009 (ip), vehicle: Klucel (hydroxypropylcellulose) (HPC)
[14] = dose: 200.0 mg/kg/injection, schedule: Q01DX009 (ip), vehicle: Klucel (hydroxypropylcellulose) (HPC)
[15] = dose: 100.0 mg/kg/injection, schedule: Q01DX009 (ip), vehicle: saline
[16] = dose: 200.0 mg/kg/injection, schedule: Q01DX009 (ip), vehicle: saline
[17] = dose: 100.0 mg/kg/injection, schedule: Q04DX003 (ip), vehicle: saline
[18] = dose: 200.0 mg/kg/injection, schedule: Q04DX003 (ip), vehicle: saline

Measured: T/C

O=[N+]([O-])C(Cc1ccccc1)Cc1ccccc1
inactive: [1] 98 % of control | [2] 103 % of control | dose: 200.0 mg/kg/injection, schedule: Q01DX005 (ip), vehicle: saline with Tween-80 97 % of control

O=C1N(CCc2ccccc2)CCCS1(=O)=O
inactive: [1] 115 % of control | [2] 117 % of control

COc1ccc(C2=C[P+](c3ccccc3)(c3ccccc3)C=C(c3ccccc3)O2)cc1
inactive: dose: 0.75 mg/kg/injection, schedule: Q01DX005 (ip), vehicle: saline with Tween-80 100 % of control and 110 % of control | dose: 0.75 mg/kg/injection, schedule: Q01DX005 (ip), vehicle: saline 120 % of control | dose: 1.5 mg/kg/injection, schedule: Q01DX005 (ip), vehicle: saline with Tween-80 108 % of control and 119 % of control | dose: 1.5 mg/kg/injection, schedule: Q01DX005 (ip), vehicle: saline 110 % of control | [3] 110 % of control and 120 % of control | dose: 3.0 mg/kg/injection, schedule: Q01DX005 (ip), vehicle: saline 120 % of control | dose: 3.12 mg/kg/injection, schedule: Q01DX005 (ip), vehicle: saline with Tween-80 114 % of control | [4] 111 % of control | dose: 6.25 mg/kg/injection, schedule: Q01DX005 (ip), vehicle: saline with Tween-80 118 % of control

C1=Cc2cc(CN3CCOCC3)ccc2Nc2ccc(CN3CCOCC3)cc21
inactive: dose: 60.0 mg/kg/injection, schedule: Q01DX005 (ip), vehicle: Klucel (hydroxypropylcellulose) (HPC) 96 % of control | dose: 120.0 mg/kg/injection, schedule: Q01DX005 (ip), vehicle: Klucel (hydroxypropylcellulose) (HPC) 94 % of control | dose: 240.0 mg/kg/injection, schedule: Q01DX005 (ip), vehicle: Klucel (hydroxypropylcellulose) (HPC) 99 % of control

Cc1cc([N+](=O)[O-])c(S(N)(=O)=O)c([N+](=O)[O-])c1
inactive: dose: 3.13 mg/kg/injection, schedule: Q01DX009 (ip), vehicle: water 96 % of control | dose: 6.25 mg/kg/injection, schedule: Q01DX009 (ip), vehicle: water 96 % of control | dose: 12.5 mg/kg/injection, schedule: Q01DX009 (ip), vehicle: water 99 % of control | dose: 25.0 mg/kg/injection, schedule: Q01DX009 (ip), vehicle: water 97 % of control | dose: 50.0 mg/kg/injection, schedule: Q01DX009 (ip), vehicle: water 98 % of control

CCC1CCC2CCOCN2C1 (centres undefined)
inactive: dose: 50.0 mg/kg/injection, schedule: Q01DX005 (ip), vehicle: saline 97 % of control | dose: 100.0 mg/kg/injection, schedule: Q01DX005 (ip), vehicle: saline 94 % of control

CCOC(=O)C[n+]1cccc(S(=O)(=O)NC)c1
inactive: [5] 94 % of control | [6] 94 % of control | [7] 93 % of control

CCOC(=O)CSc1sc(C(=O)OCC)c(N)c1C#N
inactive: [8] 87 % of control

Brc1ncc2[nH]cnc2n1
inactive: [1] 99 % of control | [2] 100 % of control

CC(C)c1cccc(C(C)C)c1NC(=O)OCCN(C)C
inactive: [9] 100 % of control | [10] 115 % of control

COc1ccc(CC2c3cc(OC)c(OC)cc3CCN2C(C)=O)cc1OC (centres undefined)
inactive: [3] 99 % of control | [4] 102 % of control | dose: 12.0 mg/kg/injection, schedule: Q01DX005 (ip), vehicle: saline with Tween-80 95 % of control

C(=C\c1ccncc1)/c1ccncc1
inactive: [11] 90 % of control | [12] 90 % of control | [8] 101 % of control | [13] 89 % of control | dose: 100.0 mg/kg/injection, schedule: Q01DX009 (ip), vehicle: saline with Tween-80 107 % of control | [14] 92 % of control

CCOC(=O)N(C)C(=O)CN(C=O)c1ncc([N+](=O)[O-])s1
inactive: dose: 100.0 mg/kg/injection, schedule: Q01DX001 (ip), vehicle: saline 101 % of control | dose: 200.0 mg/kg/injection, schedule: Q01DX001 (ip), vehicle: saline 101 % of control | dose: 400.0 mg/kg/injection, schedule: Q01DX001 (ip), vehicle: saline 100 % of control

CC1=CN2CCC(=O)N=C2C=C1
inactive: [7] 93 % of control | [15] 90 % of control | [16] 94 % of control

CCCCCCCCCCCCCCCCCCSC1=CC(=O)C(Cl)=C(Cl)C1=O
inactive: dose: 10.0 mg/kg/injection, schedule: Q01DX009 (ip), vehicle: Klucel (hydroxypropylcellulose) (HPC) 97 % of control | dose: 20.0 mg/kg/injection, schedule: Q01DX009 (ip), vehicle: Klucel (hydroxypropylcellulose) (HPC) 90 % of control

Cc1ccc(C(O)c2cnc(C)n2Cc2ccccc2)cc1 (centres undefined)
inactive: [9] 100 % of control | [10] 98 % of control | dose: 240.0 mg/kg/injection, schedule: Q01DX005 (ip), vehicle: saline with Tween-80 92 % of control

CCCCCCCCCCCCSSSCCCCCCCCCCCC
inactive: [7] 106 % of control | [15] 97 % of control | [16] 99 % of control and 87 % of control

Cc1cc(C(C)(C)C)c(O)c(C(C)(C)C)c1
inactive: dose: 100.0 mg/kg/injection, schedule: Q01DX009 (ip), vehicle: distilled water + Tween-80 + alcohol 104 % of control | dose: 200.0 mg/kg/injection, schedule: Q01DX009 (ip), vehicle: distilled water + Tween-80 + alcohol 102 % of control | dose: 400.0 mg/kg/injection, schedule: Q01DX009 (ip), vehicle: distilled water + Tween-80 + alcohol 98 % of control

Cc1cncn2ncnc12
inactive: [17] 100 % of control | [18] 95 % of control | dose: 400.0 mg/kg/injection, schedule: Q04DX003 (ip), vehicle: saline 95 % of control

CCCCOC(=O)C1(N)CCCC1
inactive: [17] 100 % of control | [18] 109 % of control

C=CN=NNc1ccc(Cl)cc1
inactive: dose: 100.0 mg/kg/injection, schedule: Q04DX003 (ip), vehicle: saline + Tween-80 + alcohol 109 % of control | dose: 200.0 mg/kg/injection, schedule: Q04DX003 (ip), vehicle: saline + Tween-80 + alcohol 108 % of control | dose: 400.0 mg/kg/injection, schedule: Q04DX003 (ip), vehicle: saline + Tween-80 + alcohol 117 % of control

CC(C)(C)/C=C/N=NNc1ccccn1
inactive: dose: 100.0 mg/kg/injection, schedule: Q01DX001 (ip), vehicle: Klucel (hydroxypropylcellulose) (HPC) 97 % of control | dose: 200.0 mg/kg/injection, schedule: Q01DX001 (ip), vehicle: Klucel (hydroxypropylcellulose) (HPC) 92 % of control | dose: 400.0 mg/kg/injection, schedule: Q01DX001 (ip), vehicle: Klucel (hydroxypropylcellulose) (HPC) 94 % of control

CCCCCCCCCCCC1=C(O)C(=O)C=C(O)C1=O
inactive: dose: 6.25 mg/kg/injection, schedule: Q01DX009 (ip), vehicle: saline with Tween-80 101 % of control | [11] 106 % of control | [12] 102 % of control

[I][Hg][CH2]C1Cc2ccccc2O1 (centres undefined)
inactive: dose: 6.25 mg/kg/injection, schedule: Q01DX009 (ip), vehicle: saline 90 % of control | [5] 90 % of control | [6] 99 % of control | [7] 96 % of control

Cc1ccc(N=Cc2ccc(C=Nc3ccc(C)cc3C)cc2)c(C)c1
inactive: dose: 50.0 mg/kg/injection, schedule: Q01DX009 (ip), vehicle: Klucel (hydroxypropylcellulose) (HPC) 92 % of control | [13] 91 % of control | [14] 97 % of control
